Test results as given in patent US10981932B2, “Macrocyclic indole derivatives” (Bayer Aktiengesellschaft, priority 2016, dated 2021).
Values joined by “and” are separate entries in the source; they are usually repeats but may differ in a detail not shown here. Identical values can stand only once. Counter-ions that a name gives are not always drawn. Like-named read-outs stand apart in the source and are kept apart here.

Assays:
[1] = system: SUDHL5; assay: Induction of caspase-3/7 activity (Caspase-Glo 3/7), SUDHL5; format: cell-based; details: caspase-3/7 induction, SUDHL5 cells, 3 h treatment; median
Outline: (§1)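 Caspase-Glo 3/7 luminescence, 3 h compound exposure, 37 °C, humidified. Minus medium-only blank. EC50 fit: C0=1, plateau = reference max induction.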

[2] = system: SUDHL10; assay: Induction of caspase-3/7 activity (Caspase-Glo 3/7), SUDHL10; format: cell-based; details: caspase-3/7 induction, SUDHL10 cells, 3 h treatment, median
Outline: as §1

[3] = target: MCL-1 (Homo sapiens, UniProt Q07820); assay: Protein-protein interaction assay MCL-1/Noxa BH3 peptide (MCL-1 assay), TR-FRET; format: binding; details: MBP-MCL-1 / Noxa BH3-derived peptide, median
Outline: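 Displacement of the biotinylated Noxa BH3 peptide from MBP-tagged human MCL-1 (1 nM) is detected by time-resolved FRET. Compounds are tested in duplicate across eleven concentrations up to 20 μM, incubated 1 h at 22 °C and overnight at 4 °C, and IC50 is fitted with a four-parameter equation.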

[4] = system: MV-4-11; assay: Anti-proliferative effect (CellTiter-Glo, 72 h), MV-4-11; format: cell-based; details: MV-4-11 cells, median, read-out: IC50 antiproliferation assay MV-4-11 [M] (median)
Outline: (§2)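 CTG luminescence read-out after 72 h compound exposure, 37 °C, humidified. Time-zero reference plate read at plating.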

[5] = system: A2780; assay: Anti-proliferative effect (CellTiter-Glo, 72 h), A2780; format: cell-based; details: A2780 cells, median, read-out: IC50 antiproliferation assay A2780 [M] (median)
Outline: as §2

[6] = system: SUDHL5; assay: Anti-proliferative effect (CellTiter-Glo, 72 h), SUDHL5; format: cell-based; details: SUDHL5 cells, antiproliferation, median, read-out: Antiproli SUDHL5 [M] (median)
Outline: as §2

[7] = system: SUDHL5; assay: Induction of cytotoxicity (CellTiter-Glo, 5 h), SUDHL5; details: read-out: Cytotox SUDHL5 [M] (median), SUDHL5 cells, cytotoxicity induction, CellTiter-Glo, median
[8] = system: SUDHL10; assay: Induction of cytotoxicity (CellTiter-Glo, 5 h), SUDHL10
[9] = read-out: Cytotox SUDHL10 [M] (median), SUDHL10 cells, cytotoxicity induction, CellTiter-Glo, 5 h incubation, median
[10] = read-out: Cytotox SUDHL10 [M] (median), SUDHL10 cells, cytotoxicity induction, CellTiter-Glo, 5 h, median
[11] = Homo sapiens, SU-DHL-5, 72 h, 72 h
[12] = Homo sapiens, SU-DHL10, 5 h, read-out: Cytotox SUDHL10 [M] (median), SUDHL10 cells, cytotoxicity induction, CellTiter-Glo, 5 h, median

Chain of MCL-1 (Q07820 whole entry): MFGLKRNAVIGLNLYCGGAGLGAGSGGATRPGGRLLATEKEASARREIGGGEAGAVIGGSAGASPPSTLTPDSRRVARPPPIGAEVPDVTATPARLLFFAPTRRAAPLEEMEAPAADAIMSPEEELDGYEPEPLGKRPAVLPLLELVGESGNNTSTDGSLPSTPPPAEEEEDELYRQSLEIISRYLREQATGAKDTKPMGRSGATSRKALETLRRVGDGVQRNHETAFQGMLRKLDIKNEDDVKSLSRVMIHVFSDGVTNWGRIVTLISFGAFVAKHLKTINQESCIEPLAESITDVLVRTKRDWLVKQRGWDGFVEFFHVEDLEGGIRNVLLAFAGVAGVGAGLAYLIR

For CCc1c2c(nn1C)COCCCCn1c(C(=O)O)c(CCCOc3cccc4cc(F)ccc34)c3cccc-2c31 (single isomer, unassigned) [Example 283], the EC50 [1] was 30.7 µM and > 33 µM, the EC50 [2] was over 33 µM and the IC50 [3] was 0.0444 µM. The IC50 [4] was 1.46e-05 M, the IC50 [5] was 1.5e-05 M and the IC50 ([6]; 72 h incubation) was 8.33e-06 M. For the same compound, the IC50 ([7]; 5 h incubation) was 2.17e-05 M and the IC50 [8, 9] was 3.05e-05 M.

Cc1c2c(nn1CCN1CCOCC1)COCCCCn1c(C(=O)O)c(CCCOc3cccc4cc(F)ccc34)c3cccc-2c31 (single isomer, unassigned) [Example 286, (−)-7-{3-[(6-fluoronaphthalen-1-yl)oxy]propyl}-3-methy-2-[2-(morpholin-4-yl)ethyl]-2,10,11,12,13,15-hexahydropyrazolo[4′,3′:9,10][1,6]oxazacycloundecino[8,7,6-hi]indole-8-carboxylic acid-N-ethylethanamine Salt] was tested, and the EC50 [1] was 11.8 µM, the EC50 [2] was over 33 µM and the IC50 [3] was 0.0272 µM. The IC50 [4] was 1.73e-05 M, the IC50 [5] was 1.26e-05 M and the IC50 ([6]; 72 h incubation) was 5.11e-06 M. For the same compound, the IC50 ([7]; 5 h incubation) was 1.2e-05 M and the IC50 [8, 9] was over 3.3e-05 M.

CCc1nn(C)c2c1-c1cccc3c(CCCOc4cccc5cc(F)ccc45)c(C(=O)O)n(c13)CCCCOC2 (single isomer, unassigned) [Example 289, (−)-3-ethyl-7-{3-[(6-fluoronaphthalen-1-yl)oxy]propyl}-1-methyl-1,10,11,12,13,15-hexahydropyrazolo[4′,3′:9,10][1,6]oxazacycloundecino[8,7,6-hi]indole-8-carboxylic Acid] showed an EC50 [1] of over 33 µM, an EC50 [2] of over 33 µM and an IC50 [3] of 0.106 µM. For the same compound, the IC50 [4] was 1.89e-05 M, the IC50 [5] was 2.23e-05 M and the IC50 ([6]; 72 h) was 1.05e-05 M. For the same compound, the IC50 ([7]; 5 h) was 2.9e-05 M and > 3.3e-05 M and the IC50 [8, 10] was over 3.3e-05 M.

For Cc1ccc2c(CCCOc3cccc4cc(F)ccc34)c(C(=O)O)n3c2c1-c1c(nn(CCN2CCOCC2)c1C)COCCCC3 (single isomer, unassigned) [Example 293, (+)-7-{3-[(6-fluoronaphthalen-1-yl)oxy]propyl}-3,4-dimethyl-2-[2-(morpholin-4-yl)ethyl]-2,10,11,12,13,15-hexahydropyrazolo[4′,3′:9,10][1,6]oxazacycloundecino[8,7,6-hi]indole-8-carboxylic acid-N-ethylethanamine Salt], the EC50 [1] was 0.309 µM, the EC50 [2] was 0.947 µM and the IC50 [3] was 0.000676 µM. The IC50 [4] was 2.08e-06 M, the IC50 ([5]; Homo sapiens, A2780, 72 h) was 1.08e-05 M and the IC50 ([6]; 72 h) was 6.43e-07 M. For the same compound, the IC50 ([7]; 5 h) was 4.23e-07 M and the IC50 [8, 10] was 9.88e-07 M.

Cc1ccc2c(CCCOc3cccc4cc(F)ccc34)c(C(=O)O)n3c2c1-c1c(nn(CCN2CCOCC2)c1C)COCCCC3 (single isomer, unassigned) [Example 294, (−)-7-{3-[(6-fluoronaphthalen-1-yl)oxy]propyl}-3,4-dimethyl-2-[2-(morpholin-4-yl)ethyl]-2,10,11,12,13,15-hexahydropyrazolo[4′,3′:9,10][1,6]oxazacycloundecino[8,7,6-hi]indole-8-carboxylic acid-N-ethylethanamine Salt] showed an EC50 [1] of 6.95 µM, an EC50 [2] of 10.8 µM and an IC50 [3] of 0.00579 µM. It also gave an IC50 [4] of 1.53e-05 M, an IC50 [5] of 1.88e-05 M and an IC50 ([6]; 72 h) of 5.96e-06 M. The IC50 ([7]; 5 h) was 5.95e-06 M and the IC50 [8, 10] was 1.08e-05 M.

Cc1c2c(nn1C)COCCCCn1c(C(=O)O)c(CCCOc3cccc4cc(Cl)ccc34)c3cccc-2c31 (single isomer, unassigned) [Example 296, (+)-7-{3-[(6-chloronaphthalen-1-yl)oxy]propyl}-2,3-dimethyl-2,10,11,12,13,15-hexahydropyrazolo[4′,3′:9,10][1,6]Oxazacycloundecino[8,7,6-hi]indole-8-carboxylic acid-N-ethylethanamine Salt] was tested, and the EC50 [1] was 3.23 µM, the EC50 ([2]; Homo sapiens, SU-DHL10, 3 h) was 18.7 µM and the IC50 [3] was 0.00331 µM. The IC50 ([4]; Homo sapiens, MV4-11, 72 h) was 1.52e-05 M, the IC50 ([5]; Homo sapiens, A2780, 72 h) was 2.07e-05 M and the IC50 [6, 11] was 5.2e-06 M. It also gave an IC50 ([7]; 5 h) of 5.31e-06 M and an IC50 [8, 12] of 1.43e-05 M.

Work on Cc1c2c(nn1C)COCCCCn1c(C(=O)O)c(CCCOc3cccc4cc(Cl)ccc34)c3cccc-2c31 (single isomer, unassigned) [Example 297, (−)-7-{3-[(6-chloronaphthalen-1-yl)oxy]propyl}-2,3-dimethyl-2,10,11,12,13,15-hexahydropyrazolo[4′3′:9,10][1,6]oxazacycloundecino[8,7,6-hi]indole-8-carboxylic acid-N-ethylethanamine Salt] yielded an EC50 [1] of over 33 µM, an EC50 [2] of over 33 µM and an IC50 [3] of 0.126 µM. It also gave an IC50 [4] of 1.9e-05 M, an IC50 [5] of 1.33e-05 M and an IC50 ([6]; 72 h) of 5.16e-06 M. It also gave an IC50 ([7]; 5 h) of 2.83e-05 M and an IC50 [8, 10] of 2.77e-05 M.

CCc1nn(C)c2c1-c1cccc3c(CCCOc4cccc5c(F)cccc45)c(C(=O)O)n(c13)CCCCOC2 (single isomer, unassigned) [Example 299, 3-ethyl-7-{3-[(5-fluoronaphthalen-1-yl)oxy]propyl}-1-methyl-1,10,11,12,13,15-hexahydropyrazolo[4′,3′:9,10][1,6]oxazacycloundecino[8,7,6-hi]indole-8-carboxylic Acid] was tested, and the EC50 [1] was over 33 µM, the EC50 ([2]; Homo sapiens, SU-DHL10, 3 h) was over 33 µM and the IC50 [3] was 0.166 µM. The IC50 ([4]; Homo sapiens, MV4-11, 72 h) was 2.63e-05 M, the IC50 ([5]; Homo sapiens, A2780, 72 h) was 2.32e-05 M and the IC50 [6, 11] was 7.39e-06 M. For the same compound, the IC50 ([7]; 5 h) was over 3.3e-05 M and the IC50 [8, 12] was over 3.3e-05 M.

In the case of CCc1nn(C)c2c1-c1cccc3c(CCCOc4cccc5c(F)cccc45)c(C(=O)O)n(c13)CCCCOC2 (single isomer, unassigned) [Example 300, 3-ethyl-7-{3-[(5-fluoronaphthalen-1-yl)oxy]propyl}-1-methyl-1,10,11,12,13,15-hexahydropyrazolo[4′3′:9,10][1,6]oxazacycloundecino[8,7,6-hi]indole-Carboxylic Acid], the EC50 [1] is reported as 3.93 µM, the EC50 [2] is reported as 20.7 µM and the IC50 [3] is reported as 0.00127 µM. For the same compound, the IC50 [4] was 2.15e-05 M, the IC50 [5] was over 3.3e-05 M and the IC50 ([6]; 72 h) was 5.13e-06 M. The IC50 ([7]; 5 h) was 5.8e-06 M and the IC50 [8, 10] was 2.25e-05 M.

Cn1nc2c(c1CN1CCOCC1)-c1cccc3c(CCCOc4cccc5ccccc45)c(C(=O)O)n(c13)CCCCOC2 (single isomer, unassigned; enantiomer 1) [Example 079, 2-methyl-3-(morpholin-4-ylmethyl)-7-[3-(naphthalen-1-yloxy)propyl]-2,10,11,12,13,15-hexahydropyrazolo[4′,3′:9,10][1,6]oxazacycloundecino[8,7,6-hi]indole-8-carboxylic acid-N-ethylethanamine Salt (Enantiomer 1)] was tested, and the EC50 [1] was 3.85 µM, the EC50 [2] was 9.85 µM and the IC50 [3] was 0.00325 µM. For the same compound, the IC50 [4] was 2.37e-06 M, the IC50 ([5]; Homo sapiens, A2780, 72 h) was 1.66e-05 M and the IC50 ([6]; 72 h incubation) was 6.7e-06 M. It also gave an IC50 ([7]; 5 h incubation) of 4.24e-06 M and an IC50 [8, 9] of 8.83e-06 M.

COCCn1nc(C2CC2)c2c1COCCCCn1c(C(=O)O)c(CCCOc3cccc4c3CCCC4)c3cccc-2c31 (single isomer, unassigned; enantiomer 1) [Example 165, 3-Cyclopropyl-1-(2-methoxyethyl)-7-[3-(5,6,7,8-tetrahydronaphthalen-1-yloxy)propyl]-1,10,11,12,13,15-hexahydropyrazolo[4′,3′:9,10][1,6]oxazacycloundecino[8,7,6-hi]indole-8-carboxylic acid-N-ethylethanamine Salt (Enantiomer 1)] gave an EC50 [1] of 5.25 µM, an EC50 ([2]; Homo sapiens, SU-DHL10, 3 h) of 19.1 µM and an IC50 [3] of 0.00289 µM. For the same compound, the IC50 [4] was 8.15e-06 M, the IC50 ([5]; Homo sapiens, A2780, 72 h) was 2.15e-05 M and the IC50 ([6]; Homo sapiens, SU-DHL-5, 72 h, 72 h incubation) was 1.13e-05 M. The IC50 ([7]; 5 h incubation) was 5.71e-06 M and the IC50 ([8]; Homo sapiens, SU-DHL10, 5 h, read-out: Cytotox SUDHL10 [M] (median), SUDHL10 cells, cytotoxicity induction, CellTiter-Glo, 5 h incubation, median) was 2.37e-05 M.

CCc1c2c(nn1CCN1CCOCC1)COCCCCn1c(C(=O)O)c(CCCOc3cccc4ccccc34)c3ccc(C)c-2c31 (single isomer, unassigned; enantiomer 1) [Example 205, 3-ethyl-4-methyl-[2-(2-(morpholin-4-yl)ethyl]-7-[3-(naphthalen-1-yloxy)propyl]-2,10,11,12,13,15-hexahydropyrazolo[4′3′:9,10][1,6]oxazacycloundecino[8,7,6-hi]indole-8-carboxylic Acid (Enantiomer 1)] was tested, and the EC50 [1] was 1.33 µM, the EC50 [2] was 2.49 µM and the IC50 [3] was 0.00165 µM. It also gave an IC50 [4] of 2.83e-06 M, an IC50 [5] of 1.03e-05 M and an IC50 ([6]; 72 h incubation) of 2e-06 M. For the same compound, the IC50 ([7]; 5 h incubation) was 1.38e-06 M and the IC50 [8, 9] was 2.92e-06 M.
